# Source: US7476514B2, “Method for monitoring the immune response and predicting clinical outcomes in transplant recipients” (Cylex, Inc., priority 2002, dated 2009)
# Test system: CD4 cells
# Test: Cylex Immune Cell Function Assay (ImmuKnow): PHA-stimulated intracellular ATP in CD4 cells from whole blood of treated transplant patient
# Type: cell-based, human
# Procedure: Whole blood (100 μl of a 1:4 dilution) was tested in quadruplicate with or without phytohemagglutinin (PHA) (2.5 μg/mL) overnight (15-18 hours in a CO2 incubator at 37° C.). Anti-human CD4 monoclonal antibody coated magnetic particles (Dynal Biotech A.S.A., Oslo, Norway) were added to immunoselect CD4 cells from both the stimulated and non-stimulated wells. After washing the CD4 cells selected on a strong magnet (Cylex™ Cat. 1050) a lysing reagent was added to release intracellular ATP. A luciferin/luciferase mixture was then added to the cell lysate. Within 30 minutes after addition of enzyme, the bioluminescent product was measured in a luminometer (PHL Mediators, Austria or Berthold, Maryville, Tenn., or Turner Designs, Sunnyvale, Calif.) (See FIG. 1). The amount of light emitted (emission maximum 562 nm) was compared to a standard curve generated with ATP calibrators (0, 1, 10, 100, 1000 ng/mL). The concentration of ATP (ng/mL) in each sample was then calculated from the calibration curve using an Excel-based program provided by Cylex™.
# (§1) To perform the assay, 200 μl of sodium heparin anticoagulated whole blood was diluted, aliquoted into wells of a 96-well microtiter plate and stimulated overnight with PHA. CD4+ cells were then selected using antibody-coated magnetic particles, washed and lysed to release intracellular ATP. The intensity of the patient's immune response was quantified by measuring the amount of intracellular ATP produced in response to stimulation.
# as §1, with “Cylex™ Immune Cell Function Assay,” for “assay,”, “stimulation. Acute rejection was diagnosed by histopathologic studies of random and endoscopically guided multiple mucosal biopsies. […]” for “stimulation.”
compound,measurement,setting,value
"C[C@H]1C[C@@H]2[C@H]([C@@H](O)C[C@@]3(C)[C@H]2CC[C@]3(O)C(=O)COC(=O)CCC(=O)[O-])[C@@]2(C)C=CC(=O)C=C12.[Na+] [Solumedrol, methylprednisolone]",change of immune response (ATP),"Case Study 2, Solumedrol re-initiated after week 43, read at week 44",dropped significantly
"OKT3: monoclonal antibody OKT3 (anti-CD3), antilymphocyte drug",immune response (ATP),"Case Study 2, multivisceral transplant recipient with acute rejection, week 39, after initial infusion of OKT3/FK and Solumedrol",954 ng/mL
same,immune response (ATP),"Case Study 2, after additional three-day course of OKT3",582 ng/mL
